The text below walks through data of US20170119034A1, “COMPOSITIONS AND METHODS FOR MODIFYING PERCEPTION OF SWEET TASTE” (University of Florida Research Foundation, Inc., priority 2012, published 2017).

What all share (type): in vivo, human
Test [1] has as its system perceived sweetness of tomato fruit (consumer panel). The test can be described thus: Tomato consumer taste panel: perceived sweetness (gLMS) regressed on fruit chemical content. Particulars: for association with sweetness: tomato, univariate models. On the procedure:
(§1) Sensory analysis. Fully ripe fruit were harvested, and used for taste panels. A random subset of fruit was used for biochemical analysis. Three biological replicates, each consisting of 2-20 fruit (depending on fruit size), were assayed for each variety. […] Panelists were between the ages of 18 and 78 with a median age of 22. […] An average of 85 (range of 66-95) of these panelists evaluated between 4-6 varieties in a session. All panelists went through a training session to familiarize them with the scaling and procedures. Tomatoes were sliced into wedges (or in halves for grape/cherry types) and each panelist was given two pieces for evaluation. Panelists took a bite of each sample, chewed and swallowed it, and rated overall liking and liking for texture. They then rated the perceived intensities of sweetness, sourness, saltiness, umami sensation, bitterness and overall tomato flavor. They were free to take as many bites as necessary to complete the assessments. They were instructed to take a bite of an unsalted cracker and a sip of water between samples. Samples were presented to the panelists in a randomized order. Hedonic ratings used the hedonic gLMS. This scale assesses the liking for tomatoes in the context of all pleasure/displeasure experiences: 0=neutral, −100=strongest disliking of any kind experienced, and +100=strongest liking of any kind experienced. Sensory intensity ratings used the gLMS (7, 8, 19).This scale assesses taste and flavor sensations in the context of all sensory experience (7): 0=no sensation, 100=strongest sensation of any kind experienced. Both scales were devised to provide valid comparisons across subjects.
(§2) Statistical analysis. The 68 chemical compounds measured in this experiment were divided into six groups based upon biochemical properties: sugars, branched chain amino acids, lipids, carotenoids, phenolics, and acids. A small number of compounds for which biosynthetic pathways are not established were assigned to one of the six classes based upon their correlations with other classified compounds. All pairwise correlations among the set of 68 compounds were calculated. Correlation coefficients were sorted using Modulated Modularity Clustering (MMC) (9) as a visual aid for identifying compounds that are closely related in this sample (FIG. 1; Table 4). Biochemical groups were examined for compounds within the group that were highly correlated and compounds that were upstream in the relevant metabolic pathways were preferentially selected.
(§3) All analyses were performed in SAS v 9.2.
In conducting the multiple regression analysis on the tomato data set, the independent variables were the sugar content (glucose+fructose), and the flavor (indicated by the retronasal perception of volatiles), while the dependent variable was the perceived sweetness.

The test system of test [2] is texture liking of strawberry fruit (consumer panel). The test can be described thus: Strawberry consumer panel: bivariate fit to texture liking. The note with it: bivariate linear fit; X = content of the substance in strawberry fruit, Y = Texture liking. How it is done: (§4) All consumer panels were approved by the University of Florida Institutional Review Board. […] Ages of panelist ranged from 18 to 71, with a median age of 24. Panelists self-classified themselves as 98 White or Caucasian, 11 Black or African-American, 1 Native American, Alaska Native or Aleutian, 41 Asian/Pacific Islander, and 15 Other. […] Fresh, fully-ripe strawberry fruit was removed from overnight 4° C. dark storage and allowed to warm to room temperature prior to sensory analysis. Each panelist was given one to two whole strawberries for evaluation, depending on cultivar availability. Panelist took a bite of each sample, chewed, and swallowed it. Ratings for overall liking and liking for texture were scaled on hedonic general labeled magnitude scale (gLMS) in the context of all pleasure/displeasure experiences. […] Scales were employed to mediate valid comparisons across subjects and sessions.
(§5) Bivariate analysis among individual measurements of samples allowed for linear fit, which includes summary of fit, analysis of variance, t-test, and correlation analysis for density ellipse. Two-way Ward hierarchical cluster analysis of all metabolite concentrations and strawberry samples accomplished in JMP.

In test [3] the test system is perceived sweetness intensity of strawberry fruit (consumer panel). The experiment in a line: Strawberry consumer panel: multiple regression of volatile concentration against perceived sweetness intensity independent of glucose, fructose or sucrose. The note with it: for FRUCTOSE t RATIO: volatile concentration regressed against perceived sweetness intensity independent of fructose; for GLUCOSE t RATIO: volatile concentration regressed against perceived sweetness intensity independent of glucose; for SUCROSE t RATIO: volatile concentration regressed against perceived sweetness intensity independent of sucrose. How it is done:
Step-wise multiple regressions of all volatile compounds against perceived intensity of sweetness is performed independent of either glucose, fructose, or sucrose concentration, separately (Table 6).
as §4
Multiple regressions were performed with the “enter” method in SPSS for identification of sweetness enhancing volatiles. Individual volatile compound concentrations were regressed using the “enter” method in SPSS Statistics (IBM Corp, Armonk, N.Y., USA).

In test [4] the test system is strawberry flavor intensity (consumer panel). The test can be described thus: Strawberry consumer panel: bivariate fit to strawberry flavor intensity. Particulars: for Parameter Estimates: Estimate: bivariate linear fit, X = content of the substance in strawberry fruit, Y = Flavor Intensity (FI). How it is done:
as §4, §5

In test [5] the test system is tomato flavor intensity (consumer panel). The test can be described thus: Tomato consumer taste panel: overall tomato flavor intensity (gLMS) versus fruit chemical content. Particulars: for association with flavor intensity: univariate models. On the procedure:
as §1, §2, §3

Molecules are shown by their SMILES.

As to `CCCCCCC=O` [heptaldehyde], in test [1], the association with sweetness entry is given as “showed evidence for association with sweetness in univariate models”.

As to `CCCCCC(C)=O` [110-43-0], the “Parameter Estimates-fit to Texture Liking: Estimate” value (shortened to “Parameter Estimates-fit”) in test [2] is listed as 0.07262. Also, in test [3], the “FRUCTOSE t RATIO” value is given as 1.054, the “GLUCOSE t RATIO” value is recorded as 0.657 and the “SUCROSE t RATIO” value was found to be 1.899. Moreover, the “Parameter Estimates: Estimate” value in test [4] was 0.06351.

As for `CC/C=C\CO` [1576-95-0], the “Parameter Estimates-fit” value in test [2] was 0.1369. For the same molecule, in test [3], the “FRUCTOSE t RATIO” value is reported as −0.186, the “GLUCOSE t RATIO” value was −0.231 and the “SUCROSE t RATIO” value is on record as −0.304. Also, the “Parameter Estimates: Estimate” value in test [4] is given as −0.006042.

With `C=CC(C)(O)CCC=C(C)C` (centres unmarked) [78-70-6], the “Parameter Estimates-fit” value in test [2] is given as 0.007729. Further, in test [3], the “FRUCTOSE t RATIO” value is recorded as 0.872, the “GLUCOSE t RATIO” value came to 0.7 and the “SUCROSE t RATIO” value is recorded as −0.1. Besides, the “Parameter Estimates: Estimate” value in test [4] is 0.009457. In addition, the “relationship to strawberry flavor intensity / sensory perception” value in test [4] (strawberry, in words) is on record as “significant positive correlation with flavor intensity”.

As to `CCC(C)OC(C)=O` (centres unmarked) [sec-butyl acetate], in test [5] (listed as 2-butylacetate), the “association with flavor intensity after accounting for fructose” value (“association … for fructose” for short) is given as “independently significant after accounting for fructose”.

`O=C(O)CC(O)(CC(=O)O)C(=O)O` [citric acid]: in test [5], the “association … for fructose” value was “independently significant after accounting for fructose” and the “association with flavor intensity” value is listed as “associated with flavor intensity in univariate models”.

As for `C/C=C/C(=O)C1=C(C)C=CCC1(C)C` [β-damascenone], in test [5] (volatiles with high odor unit values), the “association with tomato flavor intensity” value was “not associated with tomato flavor intensity”.

Consider `CCCCC/C=C/C=C/C=O` [trans,trans-2,4-decadienal], for which, in test [5], the “association … for fructose” value was “independently significant after accounting for fructose” and the “association with flavor intensity” value is on record as “associated with flavor intensity in univariate models”.

For the molecule `CCCCCCO` [111-27-3], the “Parameter Estimates-fit” value in test [2] was −0.01204. Further, in test [3], the “FRUCTOSE t RATIO” value is recorded as −1.253, the “GLUCOSE t RATIO” value is recorded as −1.481 and the “SUCROSE t RATIO” value is −0.542. Besides, the “Parameter Estimates: Estimate” value in test [4] is on record as −0.001886.

Turning to `C=CC(=O)CCCCC` [1-octen-3-one], in test [5], the “association … for fructose” value was “independently significant after accounting for fructose” and the “association with flavor intensity” value is given as “associated with flavor intensity in univariate models”.

Turning to `CCCCCCCCC=O` [nonyl aldehyde], in test [1] (multiple regression of volatile against perceived sweetness of tomato, independent of the measures of sugar), the t was found to be 1.148.

`CCCCCC(=O)OC` [106-70-7]: the “Parameter Estimates-fit” value in test [2] is on record as −0.002647. Moreover, in test [3], the “FRUCTOSE t RATIO” value was −0.321, the “GLUCOSE t RATIO” value was −0.531 and the “SUCROSE t RATIO” value was 0.802. Moreover, the “Parameter Estimates: Estimate” value in test [4] is listed as 0.002291.

On to `C=CCc1ccc(O)c(OC)c1` [eugenol], for which the association with sweetness entry in test [1] is “showed evidence for association with sweetness in univariate models”.

Regarding `COC(=O)CC(C)C` [556-24-1], the “Parameter Estimates-fit” value in test [2] is reported as −0.03139. For the same molecule, in test [3], the “FRUCTOSE t RATIO” value was 0.732, the “GLUCOSE t RATIO” value was 0.88 and the “SUCROSE t RATIO” value is 0.972. In addition, the “Parameter Estimates: Estimate” value in test [4] is 0.009438.

Consider `CCCCCCCC(C)=O` [821-55-6], for which, in test [2], the “Parameter Estimates-fit” value is 0.09508. In addition, in test [3], the “FRUCTOSE t RATIO” value is reported as −0.267, the “GLUCOSE t RATIO” value is on record as −0.467 and the “SUCROSE t RATIO” value came out at 1.192. In test [4], the “Parameter Estimates: Estimate” value was 0.06252.

In the case of `CC1C=CC2C(C1)C2(C)C` (centres unmarked) [4-carene], in test [1], the association with sweetness result is reported as “showed evidence for association with sweetness in univariate models”.

On to `COc1ccccc1O` [guaiacol], for which the association with sweetness result in test [1] is on record as “showed evidence for association with sweetness in univariate models”.

For `c1ccc2scnc2c1` [benzothiazole], in test [5], the “association with flavor intensity” value is reported as “associated with flavor intensity in univariate models”.
